Converted amounts (≈) assume the structure as drawn. “And” between values parts separate entries of the source, which are not always exact repeats. Equal values may be shown once. Read-outs that look alike come from different tables or passages of the source.
What was measured:
HepG2 = details: for Growth compared to DMSO control (%): HepG2 cell
[1] = system: ESKAPE panel of pathogens; experiment: MIC screening against the ESKAPE panel (summary)
Description: (§1) MIC measurements were based on a method previously described[6]. Overnight liquid cultures of E. coli BW, E. coli C0244, A. baumannii ATCC 17978, K. pneumoniae ATCC 43816, P. aeruginosa PA01 and E. faecium ATCC 19434 strains were inoculated with a single colony from a freshly streaked agar plate of the corresponding bacterial strain and cultured in M9 minimal medium supplemented with amino acids[6]. The bacterial culture was prepared by washing 1 mL of overnight culture in PBS pH 7.4 (x3), then diluted to OD600 = 0.5 and used to inoculate 1:1000 in M9 minimal medium with amino acids in 96-well plates. Compounds were added to 96-well plates in two-fold serial dilutions. The plates were incubated stationary at 37 °C for 18 h, then OD600 was measured. […] The assay was performed in duplicate.

BioA = BioA (Mycobacterium tuberculosis, UniProt P9WQ81); experiment: BioA Ki determination (tight binding, Morrison equation, 5 nM BioA); format: biochemical
Chain of BioA (P9WQ81 whole entry, looked up): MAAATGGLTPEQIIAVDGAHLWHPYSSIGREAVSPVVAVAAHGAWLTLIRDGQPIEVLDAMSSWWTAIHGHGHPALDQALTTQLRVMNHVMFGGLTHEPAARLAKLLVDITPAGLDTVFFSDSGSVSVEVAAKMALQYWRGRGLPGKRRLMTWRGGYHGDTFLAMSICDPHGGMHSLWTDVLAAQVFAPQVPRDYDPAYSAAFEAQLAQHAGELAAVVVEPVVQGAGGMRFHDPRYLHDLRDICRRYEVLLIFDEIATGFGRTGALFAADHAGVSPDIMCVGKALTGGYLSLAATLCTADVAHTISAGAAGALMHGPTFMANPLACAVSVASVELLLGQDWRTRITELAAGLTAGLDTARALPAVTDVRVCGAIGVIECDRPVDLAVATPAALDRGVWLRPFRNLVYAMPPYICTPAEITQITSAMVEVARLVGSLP

Mtb H37Rv = experiment: microbe, parasite or virus in culture; format: cell-based, Mycobacterium tuberculosis; details: Mycobacterium tuberculosis, H37RV; biotin-free medium
M. abscessus = experiment: MIC screening against M. abscessus (NTM); format: cell-based; details: Mycobacteroides abscessus
WT H37Rv = experiment: Agar MIC of C48; format: cell-based; details: Mycobacterium tuberculosis, 504 h
E. coli = experiment: MIC screening against Gram-negative pathogens: E. coli
Description: as §1

O=C1CCc2cc(N3CCN(C(=O)c4ccc(F)c(Br)c4)CC3)ncc21 [C48]
therapeutic index (IC50/MIC50) (HepG2; HepG2 and HT-29 versus Mtb): greater than 10,000
Growth compared to DMSO control (%) (HepG2; 3.13 μM, 48 h): 106.559% and 101.297% and 106.056%
Growth compared to DMSO control (%) (HepG2; 6.25 μM, 48 h): 105.369% and 100.246%
Growth compared to DMSO control (%) (HepG2; 12.5 μM, 48 h): 104.304% and 99.8833%
Growth compared to DMSO control (%) (HepG2; 25 μM, 48 h): 105.369% and 101.144%
Growth compared to DMSO control (%) (HepG2; 50 μM, 48 h): 106.056% and 100.625% and 106.559%
Growth compared to DMSO control (%) (HepG2; 100 μM, 48 h): 110.419% and 100.81% and 101.702%
cytotoxicity toward HepG2 (HepG2; concentrations up to 100 μM, 48 h): no cytotoxicity
activity against the entire ESKAPE panel [1]: inactive
Ki (BioA; 5 nM BioA, Morrison analysis, read-out: BioA inhibition constant (Ki)): 0.2 nM
remaining activity at 0.000520246 µM (BioA; Fig. 2A, [Inhibitor C48] 0.520246 nM, read-out: Fractional Vilocity (Vi/Vo %)): 104%
remaining activity at 0.000780369 µM (BioA; Fig. 2A, [Inhibitor C48] 0.780369 nM, read-out: Fractional Vilocity (Vi/Vo %)): 90.9%
remaining activity at 0.00117055 µM (BioA; Fig. 2A, [Inhibitor C48] 1.17055 nM, read-out: Fractional Vilocity (Vi/Vo %)): 87.2%
remaining activity at 0.00175583 µM (BioA; Fig. 2A, [Inhibitor C48] 1.75583 nM, read-out: Fractional Vilocity (Vi/Vo %)): 81%
remaining activity at 0.00263374 µM (BioA; Fig. 2A, [Inhibitor C48] 2.63374 nM, read-out: Fractional Vilocity (Vi/Vo %)): 71.8%
remaining activity at 0.00395062 µM (BioA; Fig. 2A, [Inhibitor C48] 3.95062 nM, read-out: Fractional Vilocity (Vi/Vo %)): 58.3%
remaining activity at 0.00592593 µM (BioA; Fig. 2A, [Inhibitor C48] 5.92593 nM, read-out: Fractional Vilocity (Vi/Vo %)): 37.4%
remaining activity at 0.0074 µM (BioA; Fig. 2A, [Inhibitor C48] 7.4 nM, read-out: Fractional Vilocity (Vi/Vo %)): 29.2%
remaining activity at 0.00888889 µM (BioA; Fig. 2A, [Inhibitor C48] 8.88889 nM, read-out: Fractional Vilocity (Vi/Vo %)): 20.9%
remaining activity at 0.0133333 µM (BioA; Fig. 2A, [Inhibitor C48] 13.3333 nM, read-out: Fractional Vilocity (Vi/Vo %)): 9.57%
remaining activity at 0.02 µM (BioA; Fig. 2A, [Inhibitor C48] 20 nM, read-out: Fractional Vilocity (Vi/Vo %)): 4.24%
remaining activity at 0.03 µM (BioA; Fig. 2A, [Inhibitor C48] 30 nM, read-out: Fractional Vilocity (Vi/Vo %)): 1.42%
remaining activity at […] (BioA; read-out: Fractional Vilocity (Vi/Vo %)): 13.1%
MIC50 (Mtb H37Rv): 0.093 µM (≈ 0.0389 µg/mL)
MIC (M. abscessus; ATCC19977, read-out: MIC (50% growth inhibition), M. abscessus (ATCC19977), reference strain): 0.5 µM (≈ 0.209 µg/mL)
MIC (M. abscessus; M. abscessus, NTM, footnote mark d, read-out: MIC): 0.5 to 1 µM (≈ 0.209 to 0.418 µg/mL)
MIC (M. abscessus; read-out: MIC (50% growth inhibition), M. abscessus BWH-B, clinical strain): 0.5 µM (≈ 0.209 µg/mL)
MIC (M. abscessus; read-out: MIC (50% growth inhibition), M. abscessus BWH-D, clinical strain): 0.5 µM (≈ 0.209 µg/mL)
MIC (M. abscessus; read-out: MIC (50% growth inhibition), M. abscessus T35, clinical strain): 0.5 µM (≈ 0.209 µg/mL)
MIC (M. abscessus; read-out: MIC (50% growth inhibition), M. abscessus T37, clinical strain): 1 µM (≈ 0.418 µg/mL)
MIC (M. abscessus; read-out: MIC (50% growth inhibition), M. abscessus T38, clinical strain): 1 µM (≈ 0.418 µg/mL)
MIC (M. abscessus; read-out: MIC (50% growth inhibition), M. abscessus T49, clinical strain): 0.5 µM (≈ 0.209 µg/mL)
MIC (M. abscessus; read-out: MICs against nontuberculous mycobacteria (NTM)): 0.5 to 1 µM (≈ 0.209 to 0.418 µg/mL)
MIC (WT H37Rv): 0.8 µM
MIC (E. coli; E. coli BW): inactive
MIC (E. coli; E. coli C0244): inactive

From publication doi:10.1101/2025.09.24.678246 (bioRxiv, 2025)
